# Test results taken from patent US4032573A, “Ortho-acylated anilide derivatives and salts thereof” (Sumitomo Chemical Company, Limited, priority 1976, dated 1977).
# Key:
# guinea pigs = test: Local anesthetic activity in guinea pigs (method of Bulbring and Waida), intracutaneous injection; type: in vivo
# Method: 1. Local anesthetic activity
# The local anesthetic activity of each of the compounds was determined in accordance with the method of Bulbring E. and Waida, Journal Pharmacol. Exp. Ther., 85, 78 (1945).
# mice = test: Anti-arrhythmic activity in mice (method of Lawson), intraperitoneal injection; type: in vivo; details: Mus musculus, ip
# Method: 2. Anti-arrhythmic activity
# The anti-arrhythmic activity of each of the compounds was determined in accordance with the method of J. W. Lawson, Journal Pharmacol. Exp. Ther., 160, 22 (1967).
SMILES,Local anesthetic activity in guinea pigs ED50 intracutaneous injection (guinea pigs),ED50 (mice)
CCN(CC)CCC(=O)Nc1c(C)cccc1C(C)=O,0.33 W/V %,50 mg/kg
CCN(CC)CC(=O)Nc1c(C)cccc1C(C)=O,0.12 W/V %,80 mg/kg
CCCC(=O)c1cccc(C)c1NC(=O)CCN(CC)CC,0.09 W/V %,25 mg/kg
CCN(CC)CC(=O)Nc1ccc(C(C)=O)cc1,1.0 W/V %,250 mg/kg
CCN(CC)CC(=O)Nc1cccc(C(C)=O)c1,1.0 W/V %,180 mg/kg
CCN(CC)CCC(=O)Nc1cc(C(C)=O)ccc1C,1.48 W/V %,97 mg/kg
